Assay results from patent US20260365647A1, “AKT1 MODULATORS” (Alterome Therapeutics, Inc., priority 2022, published 2026).

Target: T1, AKT1-E17K (Homo sapiens, UniProt P31749, E17K)
T1 construct: host or cells: HEK-293 (ATCC CRL-1573)
Experiment: NanoBRET Target Engagement (TE) Assay
Assay type: cell-based
From the text: The NanoBRET™ Target Engagement (TE) Intracellular Kinase Assays are based on the NanoBRET™ System (Promega Corporation), an energy transfer technique designed to measure molecular proximity in living cells. The NanoBRET™ TE Assays measure the apparent affinity of test compounds by competitive displacement of the NanoBRET™ tracer compound, which is a cell permeable molecule engineered to be reversibly bound to a NanoLuc® luciferase-kinase fusion expressed in cells. For compound screening, when a test compound binds to the selected kinase, the BRET signal is attenuated. […] All cells were evaluated for viability prior to transfection and optimization of the transfection was done prior to experimentation. […] Following transfection, cells were washed and resuspended in Opti-MEM. NanoBRET assays were performed in white, 384-well plates (Corning) at a density of […]. All example compounds were prepared as concentrated stock solutions in DMSO (Sigma-Aldrich). Compounds are dissolved in DMSO to make 10 mM stock solution. […] A Labcyte ECHO 550 compound dispenser was used to facilitate compound transfer directly to cells. Cells were equilibrated for 2 hr with energy transfer probes and example compound prior to BRET measurements. […] For target engagement analysis, the energy transfer probes were added to the cells at concentrations optimized for the target in question (AKT E17K). Following compound incubation, NanoBRET NanoGlo Substrate (Promega Cat #N157D) and Extracellular Nanoluc Inhibitor (Promega Cat #N235C) was added according to the manufacturer's recommended protocol, and luminescence was measured on Envision Reader (Perkin Elmer) Multimode Luminometer equipped with 450 nmBPfilter (donor) and 600 nmLPfilter (acceptor), using 0.5 s integration time. Milli-BRET units (mBU) are calculated by multiplying the raw BRET values by 1000. Apparent tracer affinity values (EC50) were determined using the sigmoidal dose-response (variable slope). Competitive displacement data were then plotted and data were fit to determine the EC50 value for each example compound.

T1 sequence (P31749 whole entry E17K): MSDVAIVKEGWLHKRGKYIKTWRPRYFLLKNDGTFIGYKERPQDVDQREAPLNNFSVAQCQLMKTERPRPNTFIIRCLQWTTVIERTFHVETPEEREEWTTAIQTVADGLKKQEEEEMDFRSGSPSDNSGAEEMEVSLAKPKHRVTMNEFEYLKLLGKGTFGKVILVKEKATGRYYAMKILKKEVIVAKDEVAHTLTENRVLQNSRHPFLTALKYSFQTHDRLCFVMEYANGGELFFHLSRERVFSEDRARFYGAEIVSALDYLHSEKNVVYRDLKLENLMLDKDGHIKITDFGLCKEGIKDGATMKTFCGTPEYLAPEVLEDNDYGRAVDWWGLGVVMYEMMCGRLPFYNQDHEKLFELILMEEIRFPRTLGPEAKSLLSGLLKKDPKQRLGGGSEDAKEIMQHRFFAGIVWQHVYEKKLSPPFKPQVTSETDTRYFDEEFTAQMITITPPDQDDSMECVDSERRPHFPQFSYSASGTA

Row | IC50 [nM] | SMILES
1 | 60 to 600 | Nc1ncccc1-c1nc2ccc(-c3ccccc3)nc2n1-c1ccc(CN2CCC3(CC2)CN(c2ccc(C=O)c(O)c2)C3)cc1 [Example 73, 4-(7-(4-(2-(2-Aminopyridin-3-yl)-5-phenyl-3H-imidazo[4,5-b]pyridin-3-yl)benzyl)-2,7-diazaspiro[3.5]nonan-2-yl)-2-hydroxybenzaldehyde]
2 | 60 to 600 | Nc1ncccc1-c1nc2ccc(-c3ccccc3)nc2n1-c1ccc(COc2ccc(C=O)c(O)c2)cc1 [Example 138, 4-((4-(2-(2-Aminopyridin-3-yl)-5-phenyl-3H-imidazo[4,5-b]pyridin-3-yl)benzyl)oxy)-2-hydroxybenzaldehyde]
3 | 15 to 60 | Nc1ncccc1-c1nc2ccc(-c3ccccc3)nc2n1-c1ccc(CN2CC3(CCN(c4ccc(C=O)c(O)c4)C3)C2)cc1 [Example 94, 4-(2-(4-(2-(2-Aminopyridin-3-yl)-5-phenyl-3H-imidazo[4,5-b]pyridin-3-yl)benzyl)-2,6-diazaspiro[3.4]octan-6-yl)-2-hydroxybenzaldehyde]
4 | 60 to 600 | Nc1ncccc1-c1nc2ccc(-c3ccccc3)nc2n1-c1ccc(CN2CCC(Oc3ccc(O)c(C=O)c3)CC2)cc1 [Example 130, 5-((1-(4-(2-(2-Aminopyridin-3-yl)-5-phenyl-3H-imidazo[4,5-b]pyridin-3-yl)benzyl)piperidin-4-yl)oxy)-2-hydroxybenzaldehyde]
5 | 60 to 600 | Nc1ncccc1-c1nc2ccc(-c3ccccc3)nc2n1-c1ccc(CN2CC[C@]3(CCN(C(=O)c4ccc(O)c(C=O)c4)C3)C2)cc1 [Example 101, (S)-5-(7-(4-(2-(2-Aminopyridin-3-yl)-5-phenyl-3H-imidazo[4,5-b]pyridin-3-yl)benzyl)-2,7-diazaspiro[4.4]nonane-2-carbonyl)-2-hydroxybenzaldehyde]
6 | 60 to 600 | Nc1ncccc1-c1nc2ccc(-c3ccccc3)nc2n1-c1ccc(CN2CCC3(CCN(C(=O)c4ccc(O)c(C=O)c4)C3)C2)cc1 (stereo not drawn) [Example 80, 5-(7-(4-(2-(2-Aminopyridin-3-yl)-5-phenyl-3H-imidazo[4,5-b]pyridin-3-yl)benzyl)-2,7-diazaspiro[4.4]nonane-2-carbonyl)-2-hydroxybenzaldehyde]
7 | 60 to 600 | CN(c1ccc(C=O)c(O)c1)C1CCN(Cc2ccc(-n3c(-c4cccnc4N)nc4ccc(-c5ccccc5)nc43)cc2)CC1 [Example 57, 4-((1-(4-(2-(2-Aminopyridin-3-yl)-5-phenyl-3H-imidazo[4,5-b]pyridin-3-yl)benzyl)piperidin-4-yl)(methyl)amino)-2-hydroxybenzaldehyde]
8 | 60 to 600 | Nc1ncccc1-c1nc2ccc(-c3ccccc3)nc2n1-c1ccc(CN2CCC(N(C(=O)c3ccc(O)c(C=O)c3)C3CC3)CC2)cc1 [Example 12, N-(1-(4-(2-(2-aminopyridin-3-yl)-5-phenyl-3H-imidazo[4,5-b]pyridin-3-yl)benzyl)piperidin-4-yl)-N-cyclopropyl-3-formyl-4-hydroxybenzamide]
9 | 15 to 60 | Nc1ncccc1-c1nc2ccc(-c3ccccc3)nc2n1-c1ccc(CN2C[C@H]3CN(C(=O)c4ccc(O)c(C=O)c4)C[C@@H]3C2)cc1 [Example 135, 5-((3aS,6aS)-5-(4-(2-(2-Aminopyridin-3-yl)-5-phenyl-3H-imidazo[4,5-b]pyridin-3-yl)benzyl)octahydropyrrolo[3,4-c]pyrrole-2-carbonyl)-2-hydroxybenzaldehyde]
10 | 60 to 600 | CCN(C(=O)c1ccc(O)c(C=O)c1)C1CCN(Cc2ccc(-n3c(-c4cccnc4N)nc4ccc(-c5ccccc5)nc43)cc2)CC1 [Example 13, N-(1-(4-(2-(2-Aminopyridin-3-yl)-5-phenyl-3H-imidazo[4,5-b]pyridin-3-yl)benzyl)piperidin-4-yl)-N-ethyl-3-formyl-4-hydroxybenzamide]

The remaining lines, values behind:

Row | SMILES | IC50 [nM]
11 | Nc1ncccc1-c1nc2ccc(-c3ccccc3)nc2n1-c1ccc(CN2CC(NC(=O)c3ccc(C=O)c(O)c3)C2)cc1 [Example 65, N-(1-(4-(2-(2-Aminopyridin-3-yl)-5-phenyl-3H-imidazo[4,5-h]pyridin-3-yl)benzyl)azetidin-3-yl)-4-formyl-3-hydroxybenzamide] | 15 to 60
12 | Nc1ncccc1-c1nc2ccc(C3=CCOCC3)nc2n1-c1ccc(CN2CCN(C(=O)c3ccc(O)c(C=O)c3)CC2)cc1 [Example 29, 5-(4-(4-(2-(2-Aminopyridin-3-yl)-5-(3,6-dihydro-2H-pyran-4-yl)-3H-imidazo[4,5-b]pyridin-3-yl)benzyl)piperazine-1-carbonyl)-2-hydroxybenzaldehyde] | 60 to 600
13 | Cn1cc(-c2ccc3nc(-c4cccnc4N)n(-c4ccc(CN5CCN(C(=O)c6ccc(O)c(C=O)c6)CC5)cc4)c3n2)ccc1=O [Example 44, 5-(4-(4-(2-(2-aminopyridin-3-yl)-5-(1-methyl-6-oxo-1,6-dihydropyridin-3-yl)-3H-imidazo[4,5-b]pyridin-3-yl)benzyl)piperazine-1-carbonyl)-2-hydroxybenzaldehyde] | > 600
14 | Nc1ncccc1-c1nc2ccc(-c3ccccc3)nc2n1-c1ccc(CN2CC3(CC(NC(=O)c4ccc(C=O)c(O)c4)C3)C2)cc1 [Example 70, N-(2-(4-(2-(2-Aminopyridin-3-yl)-5-phenyl-3H-imidazo[4,5-b]pyridin-3-yl)benzyl)-2-azaspiro[3.3]heptan-6-yl)-4-formyl-3-hydroxybenzamide] | 60 to 600
15 | Nc1ncccc1-c1nc2ccc(-c3ccccc3)nc2n1-c1ccc(CN2CC[C@@]3(CCN(C(=O)c4ccc(C=O)c(O)c4)C3)C2)cc1 [Example 99, (R)-4-(7-(4-(2-(2-aminopyridin-3-yl)-5-phenyl-3H-imidazo[4,5-b]pyridin-3-yl)benzyl)-2,7-diazaspiro[4.4]nonane-2-carbonyl)-2-hydroxybenzaldehyde] | 60 to 600
16 | CN(Cc1ccc(-n2c(-c3cccnc3N)nc3ccc(-c4ccccc4)nc32)cc1)c1ccc(C=O)c(O)c1 [Example 17, 4-((4-(2-(2-Aminopyridin-3-yl)-5-phenyl-3H-imidazo[4,5-b]pyridin-3-yl)benzyl)(methyl)amino)-2-hydroxybenzaldehyde] | 60 to 600
17 | Nc1ncccc1-c1nc2ccc(-c3ccccc3)nc2n1-c1ccc(CN2CC3CCC(C2)N3C(=O)c2ccc(C=O)c(O)c2)cc1 [Example 109, 4-(3-(4-(2-(2-Aminopyridin-3-yl)-5-phenyl-3H-imidazo[4,5-b]pyridin-3-yl)benzyl)-3,8-diazabicyclo[3.2.1]octane-8-carbonyl)-2-hydroxybenzaldehyde] | > 600
18 | Nc1ncccc1-c1nc2cc(-c3ccccc3)cnc2n1-c1ccc(CN2CCN(c3ccc(C=O)c(O)c3)CC2)cc1 [Example 54, 4-(4-(4-(2-(2-Aminopyridin-3-yl)-6-phenyl-3H-imidazo[4,5-b]pyridin-3-yl)benzyl)piperazin-1-yl)-2-hydroxybenzaldehyde] | 60 to 600
19 | Nc1ncccc1-c1nc2ccc(-c3ccccc3)nc2n1-c1ccc(CN2CCC3(CCCN(C(=O)c4ccc(O)c(C=O)c4)C3)C2)cc1 (stereo not drawn) [Example 86, 5-(2-(4-(2-(2-Aminopyridin-3-yl)-5-phenyl-3H-imidazo[4,5-b]pyridin-3-yl)benzyl)-2,7-diazaspiro[4.5]decane-7-carbonyl)-2-hydroxybenzaldehyde] | 60 to 600
20 | Nc1ncccc1-c1nc2ccc(-c3ccccc3)nc2n1-c1ccc(CN2C[C@H]3C[C@@H]2CN3c2ccc(C=O)c(O)c2)cc1 [Example 124, 4-((1R,4R)-5-(4-(2-(2-Aminopyridin-3-yl)-5-phenyl-3H-imidazo[4,5-b]pyridin-3-yl)benzyl)-2,5-diazabicyclo[2.2.1]heptan-2-yl)-2-hydroxybenzaldehyde] | 15 to 60
21 | Nc1ncccc1-c1nc2ccc(-c3ccccc3)nc2n1-c1ccc(CN2CC3(CCN(C(=O)c4ccc(C=O)c(O)c4)C3)C2)cc1 [Example 93, 4-(2-(4-(2-(2-Aminopyridin-3-yl)-5-phenyl-3H-imidazo[4,5-b]pyridin-3-yl)benzyl)-2,6-diazaspiro[3.4]octane-6-carbonyl)-2-hydroxybenzaldehyde] | 60 to 600
22 | Nc1ncccc1-c1nc2ccc(-c3ccccc3)nc2n1-c1ccc(CN2CCC3(CCN(C(=O)c4ccc(O)c(C=O)c4)CC3)C2)cc1 [Example 84, 5-(2-(4-(2-(2-Aminopyridin-3-yl)-5-phenyl-3H-imidazo[4,5-b]pyridin-3-yl)benzyl)-2,8-diazaspiro[4.5]decane-8-carbonyl)-2-hydroxybenzaldehyde] | 60 to 600
23 | Nc1ncccc1-c1nc2ccc(-c3ccccc3)nc2n1-c1ccc(CN2C[C@@H]3C[C@H]2CN3C(=O)c2ccc(C=O)c(O)c2)cc1 [Example 122, 4-((1S,4S)-5-(4-(2-(2-Aminopyridin-3-yl)-5-phenyl-3H-imidazo[4,5-b]pyridin-3-yl)benzyl)-2,5-diazabicyclo[2.2.1]heptane-2-carbonyl)-2-hydroxybenzaldehyde] | 15 to 60
24 | Nc1ncccc1-c1nc2ccc(-c3cccc(=O)[nH]3)nc2n1-c1ccc(CN2CCN(C(=O)c3ccc(O)c(C=O)c3)CC2)cc1 [Example 45, 5-(4-(4-(2-(2-Aminopyridin-3-yl)-5-(6-oxo-1,6-dihydropyridin-2-yl)-3H-imidazo[4,5-b]pyridin-3-yl)benzyl)piperazine-1-carbonyl)-2-hydroxybenzaldehyde] | > 600
